The values below come from US20150342968A1, “STABLE PHARMACEUTICAL COMPOSITION FOR TREATING OSTEOPOROSIS” (LANDSTEINER SCIENTIFIC S.A. DE C.V., priority 2012, published 2015).

One may read the Tmax as the time from dosing to the highest level.

The conditions of data set [1]: cited from earlier work.
Data set [2] can be described thus: Dissolution acid stage (gastro-resistance) of tablets of composition in Table 1. Format: physicochemical. The method, then: (§1) Two stability tests of vitamin D3 and risedronate sodium were performed at different conditions by subjecting the tablets that were prepared according to the composition in Table 1. The conditions were as follows:
The product complies with the gastro-resistant stage, because it has an enteric coating to protect the mucous membranes while it passes through the gastrointestinal system.

For data set [3] the following is noted: cited from earlier work. The source holds these as a separate data set.
Data set [4] can be described thus: Dissolution buffer stage pH 6.8 of tablets of composition in Table 1. Format: physicochemical. As to the method: as §1
It is evident that the risedronate sodium dissolves quickly in a medium with pH 6.8, obtaining more than 100% in the first 10 minutes.

Data set [5] in a line: Evaluation of the stability of risedronate sodium in tablets of composition in Table 1. The format is physicochemical. The method, then: as §1
(§2) Two batches of the composition were subjected to different conditions to evaluate the stability of vitamin D3 and risedronate sodium. The conditions were the following: 30° C./65% RH, 40° C./75% RH and Cycled 40° C./75% RH-Cooling (2°-8° C.). The samples were submitted for 4 weeks and the following results were obtained.
Evaluation of the Stability of Risedronate Sodium

Data set [6] is described as follows: Evaluation of the stability of vitamin D3 in tablets of composition in Table 1. The format is physicochemical. As to the method: as §1
Evaluation Of The Stability Of Vitamin D3
as §2

Several values for one entry are separate records, joined by “and”; a condition that tells them apart may be missing. Identical values can stand only once.

As to `O=P(O)(O)C(O)(Cc1cccnc1)P(=O)(O)O` [Risedronate sodium, risedronate sodium], the plasmatic protein binding in data set [1] is on record as 24%. For the same compound, the “Risedronate sodium Acid Stage % Dissolved” value in data set [2] (individual samples S1-S6, specification no more than 10.0%) was 0.97% and 0.56% and 0.80% and 0.95% and 1.19% and 0.71%. Besides, the “Risedronate sodium Acid Stage % Dissolved, Maximum” value in data set [2] (maximum of S1-S6) is on record as 1.19%. The “Risedronate sodium Acid Stage % Dissolved, Mean” value in data set [2] (mean of S1-S6) is reported as 0.86%. Also, the “Risedronate sodium Acid Stage % Dissolved, Minimum” value in data set [2] (minimum of S1-S6) worked out at 0.56%. For the same compound, the “injected dose recovered in the urine” value in data set [3] (after 28 days) is recorded as 85%. In addition, in data set [3] (after an oral dose), the Tmax was ~1 h. Besides, the “part of the absorbed dose excreted in the urine” value in data set [3] (first 24 hours) is “One half”. The “mean volume of distribution at steady state equilibrium” value in data set [3] (humans) is listed as 6.3 L/kg. Moreover, the “Dissolution buffer stage, dissolved” value in data set [4] (pH 6.8, 5 min) was 94.08%; in data set [4] (pH 6.8, 10 min), “more than 100%”; in data set [4] (pH 6.8, 10 min, listed as Risedronate Sodium 35 mg) it was 100.93%; in data set [4] (pH 6.8, 15 min), 100.84%; in data set [4] (pH 6.8, 20 min) it was 100.94%; in data set [4] (pH 6.8, 30 min), 100.12%. In data set [4] (pH 6.8, 45 min), the “Dissolution buffer stage, dissolved” value was found to be 100.48%. The “Risedronate sodium stability, Final” value stood at 100.66% in data set [5] (Test 1, final (4 weeks)) and 96.75% in data set [5] (Test 2, final (4 weeks)). Also, the “Risedronate sodium stability, Initial” value in data set [5] (Test 1, initial) is 102.55%; in data set [5] (Test 2, initial), 100.99%.

Take `C=C1CC[C@H](O)C/C1=C/C=C1\CCC[C@]2(C)[C@@H]([C@H](C)CCCC(C)C)CC[C@@H]12` [Vitamin D3, cholecalciferol]: the “Vitamin D3 rating (stability)” value was 100.00% in data set [6] (Test 1, week 0, 30° C./65% RH); 100.00% in data set [6] (Test 1, week 0, 40° C./75% RH); 100.00% in data set [6] (Test 1, week 0, Cycled 40° C./75% RH-cooling); 102.02% in data set [6] (Test 1, week 1, 30° C./65% RH); 98.34% in data set [6] (Test 1, week 1, 40° C./75% RH); 98.69% in data set [6] (Test 1, week 1, Cycled 40° C./75% RH-cooling). Besides, the “Vitamin D3 rating (stability)” value turned out to be 99.20% in data set [6] (Test 1, week 2, 30° C./65% RH); 98.12% in data set [6] (Test 1, week 2, 40° C./75% RH); 97.90% in data set [6] (Test 1, week 2, Cycled 40° C./75% RH-cooling); 96.39% in data set [6] (Test 1, week 4, 30° C./65% RH); 96.03% in data set [6] (Test 1, week 4, 40° C./75% RH); 96.09% in data set [6] (Test 1, week 4, Cycled 40° C./75% RH-cooling). For the same compound, the “Vitamin D3 rating (stability)” value in data set [6] (Test 2, week 0, 30° C./65% RH) is listed as 100.00%; in data set [6] (Test 2, week 0, 40° C./75% RH), 100.00%; in data set [6] (Test 2, week 0, Cycled 40° C./75% RH-cooling) it was 100.00%; in data set [6] (Test 2, week 1, 30° C./65% RH), 97.34%; in data set [6] (Test 2, week 1, 40° C./75% RH), 99.62%; in data set [6] (Test 2, week 1, Cycled 40° C./75% RH-cooling), 95.55%. Further, the “Vitamin D3 rating (stability)” value in data set [6] (Test 2, week 2, 30° C./65% RH) turned out to be 96.93%; in data set [6] (Test 2, week 2, 40° C./75% RH), 97.80%; in data set [6] (Test 2, week 2, Cycled 40° C./75% RH-cooling) it was 96.31%; in data set [6] (Test 2, week 4, 30° C./65% RH), 94.79%; in data set [6] (Test 2, week 4, 40° C./75% RH), 96.32%; in data set [6] (Test 2, week 4, Cycled 40° C./75% RH-cooling) it was 94.79%. For the same compound, the “decrease in the vitamin D3 rating” value in data set [6] (over the four weeks under the different conditions) worked out at 5.96%.
